Laboratory results from patent US8552002B2 (Novartis AG, priority 2004, dated 2013).
Structures can show the parent of a compound that is named as a salt. Blank lines part the entries; values can stand above or below the compound they belong to.

Legend:
Type in all cases: biochemical
KDR = target: T1, KDR (Homo sapiens, UniProt P35968); assay: Inhibitory activity against KDR (VEGF-R2), in vitro data of Examples 170 and 207; conditions: 10 μM; Examples 1 to 169; read-out: KDR inhibition at 10 μM
T1 construct: expressed in transfected cells; host or cells: CHO cells
Experimental: (Controls comprise medium without test compounds). After two hours of incubation at 37° C., recombinant VEGF is added; the final VEGF concentration is 20 ng/ml. After a further five minutes incubation at 37° C., the cells are washed twice with ice-cold PBS (phosphate-buffered saline) and immediately lysed in 100 μl lysis buffer per well. The lysates are then centrifuged to remove the cell nuclei, and the protein concentrations of the supernatants are determined using a commercial protein assay (BIORAD). The lysates can then either be immediately used or, if necessary, stored at −20° C. […] The plates are then washed and the remaining free protein-binding sites are saturated with 3% TopBlock® (Juro, Cat. # TB232010) in phosphate buffered saline with Tween 20® (polyoxyethylen(20)sorbitane monolaurate, ICI/Uniquema) (PBST). The cell lysates (20 μg protein per well) are then incubated in these plates overnight at 4° C. together with an antiphosphotyrosine antibody coupled with alkaline phosphatase (PY20:AP from Zymed). […] The luminescence is measured in a Packard Top Count Microplate Scintillation Counter.

Tek = target: T2, Tek (Homo sapiens, UniProt Q02763); assay: Recombinant GST-Tek (Tie-2) tyrosine kinase assay (33P into poly(Glu,Tyr)); conditions: Examples 1 to 169
T2 construct: amino acids 773-1124 of the cytoplasmic kinase domain of human Tek, N-terminally fused to GST; made in house; host or cells: Sf9 insect cells (baculovirus)
Description: (Tie-2/Tek): The baculovirus donor vector pFbacG01 was used to generate a recombinant baculovirus that expressed the amino acid region amino acids 773-1124 of the cytoplasmic kinase domain of human Tek, N-terminally fused to GST (Provided by Dr. Marmé, Institute of Molecular Medicine, Freiburg, Germany based on a Research Collaboration). Tek was recloned into the pFbacG01 transfer vector by EcoRI excision and ligation into EcoRI digested pFbacG01 (FBG-Tie2/Tek).
Production of virus: Transfer vectors containing the kinase domains were transfected into the DH10Bac cell line (GIBCO) and plated on selective agar plates. Colonies without insertion of the fusion sequence into the viral genome (carried by the bacteria) are blue. Single white colonies were picked and viral DNA (bacmid) isolated from the bacteria by standard plasmid purification procedures. Sf9 cells or Sf21 cells were then transfected in 25 cm^2 flasks with the viral DNA using Cellfectin reagent.
Determination of small scale protein expression in Sf9 cells: Virus containing media was collected from the transfected cell culture and used for infection to increase its titer. Virus containing media obtained after two rounds of infection was used for large-scale protein expression. For large-scale protein expression 100 cm^2 round tissue culture plates were seeded with 5×10^7 cells/plate and infected with 1 mL of virus-containing media (approx. 5 MOIs). After 3 days the cells were scraped off the plate and centrifuged at 500 rpm for 5 min. Cell pellets from 10-20, 100 cm^2 plates, were resuspended in 50 mL of ice-cold lysis buffer (25 mMTris-HCl, pH7.5, 2 mMEDTA, 1% NP-40, 1 mM DTT, 1 mMP MSF). The cells were stirred on ice for 15 min and then centrifuged at 5000 rpms for 20 min.
Purification of GST-tagged proteins: The centrifuged cell lysate was loaded onto a 2 mL glutathione-sepharose column and washed three times with 10 mL of 25 mM Tris-HCl, pH 7.5, 2 mM EDTA, 1 mM DTT, 200 mM NaCl. The GST-tagged proteins were then eluted by 10 applications (1 mL each) of 25 mM Tris-HCl, pH 7.5, 10 mM reduced-glutathione, 100 mM NaCl, 1 mM DTT, 10% Glycerol and stored at −70° C.
Measure of enzyme activity: Tyrosine protein kinase assays with either purified GST-Ret, GST-Tek or GST-FGFR-3-K650E were carried out in a final volume of 30 μL with final concentrations of the following components: Ret included 15 ng of GST-Ret, 20 mM Tris-HCl, pH 7.5, 1 mM MnCl2, 10 mM MgCl2, 1 mM DTT, 3 μg/mL poly(Glu,Tyr) 4:1, 1% DMSO and 2.0 μM ATP (γ-[^33P]-ATP 0.1 μCi). Tek included 150 ng of GST-Tek, 20 mM Tris-HCl, pH 7.5, 3 mM MnCl2, 3 mM MgCl2, 1 mM DTT, 0.01 mM Na3VO4, 250 μg/mL PEG 20'000, 10 μg/mL poly(Glu,Tyr) 4:1, 1% DMSO and 4.0 μM ATP (γ-[^33P]-ATP 0.1 μCi). FGFR-3-K650E included 10 ng of GST-FGFR-3-K650E, 20 mM Tris-HCl, pH 7.5, 3 mM MnCl2, 3 mM MgCl2, 1 mM DTT, […], 10 μg/mL poly(Glu,Tyr) 4:1, 1% DMSO and 4.0 μM ATP (γ-[^33P]-ATP 0.1 μCi).The activity was assayed in the presence or absence of inhibitors, by measuring the incorporation of ^33P from [γ^33P] ATP into poly(Glu,Tyr) 4:1. The assay was carried out in 96-well plates at ambient temperature for 30 min under conditions described below and terminated by the addition of 50 μL of 125 mM EDTA. Subsequently, 60 μL of the reaction mixture were transferred onto Immobilon-PVDF membrane (Millipore) previously soaked for 5 min with methanol, rinsed with water, then soaked for 5 min with 0.5% H3PO4 and mounted on vacuum manifold with disconnected vacuum source. After spotting all samples, vacuum was connected and each well rinsed with 200 μL 0.5% H3PO4. Membranes were removed and washed 4× on a shaker with 1.0% H3PO4, once with ethanol. Membranes were counted after drying at ambient temperature, mounting in Packard TopCount 96-well frame, and addition of 10 μL/well of Microscint™ (Packard). […]

FGFR3 (K650E) = target: T3, FGFR3 (K650E) (Homo sapiens, UniProt P22607, K650E); assay: Recombinant GST-FGFR-3-K650E tyrosine kinase assay (33P into poly(Glu,Tyr)); conditions: 10 μM; Examples 1 to 169; read-out: FGFR3 (K650E) inhibition at 10 μM
T3 construct: amino acids 411-806 of the cytoplasmic domain of human FGFR-3, N-terminally fused to GST; made in house; host or cells: Sf9 insect cells (baculovirus)
T3 sequence (P22607 411-806 K650E): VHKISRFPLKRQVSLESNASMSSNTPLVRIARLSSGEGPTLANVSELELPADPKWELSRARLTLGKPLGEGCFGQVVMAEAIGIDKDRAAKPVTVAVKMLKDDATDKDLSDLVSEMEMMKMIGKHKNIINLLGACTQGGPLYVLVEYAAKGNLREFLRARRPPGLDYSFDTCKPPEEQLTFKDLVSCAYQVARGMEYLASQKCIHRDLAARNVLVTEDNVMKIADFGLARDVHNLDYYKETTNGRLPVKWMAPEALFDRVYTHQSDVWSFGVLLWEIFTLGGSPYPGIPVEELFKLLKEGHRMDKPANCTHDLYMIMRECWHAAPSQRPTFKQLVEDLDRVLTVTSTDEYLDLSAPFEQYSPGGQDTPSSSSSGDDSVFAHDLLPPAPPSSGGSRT

T2 sequence (Q02763 773-1124): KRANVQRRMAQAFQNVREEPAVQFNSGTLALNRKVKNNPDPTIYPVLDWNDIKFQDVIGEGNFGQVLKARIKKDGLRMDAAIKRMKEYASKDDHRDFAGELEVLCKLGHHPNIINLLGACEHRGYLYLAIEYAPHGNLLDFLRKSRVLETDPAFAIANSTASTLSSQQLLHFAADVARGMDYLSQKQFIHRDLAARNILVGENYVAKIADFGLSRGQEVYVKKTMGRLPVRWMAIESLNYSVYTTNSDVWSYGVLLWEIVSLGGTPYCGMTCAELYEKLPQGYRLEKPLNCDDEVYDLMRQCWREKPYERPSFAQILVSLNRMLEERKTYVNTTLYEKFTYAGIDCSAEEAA
T1 sequence (P35968 20-1356): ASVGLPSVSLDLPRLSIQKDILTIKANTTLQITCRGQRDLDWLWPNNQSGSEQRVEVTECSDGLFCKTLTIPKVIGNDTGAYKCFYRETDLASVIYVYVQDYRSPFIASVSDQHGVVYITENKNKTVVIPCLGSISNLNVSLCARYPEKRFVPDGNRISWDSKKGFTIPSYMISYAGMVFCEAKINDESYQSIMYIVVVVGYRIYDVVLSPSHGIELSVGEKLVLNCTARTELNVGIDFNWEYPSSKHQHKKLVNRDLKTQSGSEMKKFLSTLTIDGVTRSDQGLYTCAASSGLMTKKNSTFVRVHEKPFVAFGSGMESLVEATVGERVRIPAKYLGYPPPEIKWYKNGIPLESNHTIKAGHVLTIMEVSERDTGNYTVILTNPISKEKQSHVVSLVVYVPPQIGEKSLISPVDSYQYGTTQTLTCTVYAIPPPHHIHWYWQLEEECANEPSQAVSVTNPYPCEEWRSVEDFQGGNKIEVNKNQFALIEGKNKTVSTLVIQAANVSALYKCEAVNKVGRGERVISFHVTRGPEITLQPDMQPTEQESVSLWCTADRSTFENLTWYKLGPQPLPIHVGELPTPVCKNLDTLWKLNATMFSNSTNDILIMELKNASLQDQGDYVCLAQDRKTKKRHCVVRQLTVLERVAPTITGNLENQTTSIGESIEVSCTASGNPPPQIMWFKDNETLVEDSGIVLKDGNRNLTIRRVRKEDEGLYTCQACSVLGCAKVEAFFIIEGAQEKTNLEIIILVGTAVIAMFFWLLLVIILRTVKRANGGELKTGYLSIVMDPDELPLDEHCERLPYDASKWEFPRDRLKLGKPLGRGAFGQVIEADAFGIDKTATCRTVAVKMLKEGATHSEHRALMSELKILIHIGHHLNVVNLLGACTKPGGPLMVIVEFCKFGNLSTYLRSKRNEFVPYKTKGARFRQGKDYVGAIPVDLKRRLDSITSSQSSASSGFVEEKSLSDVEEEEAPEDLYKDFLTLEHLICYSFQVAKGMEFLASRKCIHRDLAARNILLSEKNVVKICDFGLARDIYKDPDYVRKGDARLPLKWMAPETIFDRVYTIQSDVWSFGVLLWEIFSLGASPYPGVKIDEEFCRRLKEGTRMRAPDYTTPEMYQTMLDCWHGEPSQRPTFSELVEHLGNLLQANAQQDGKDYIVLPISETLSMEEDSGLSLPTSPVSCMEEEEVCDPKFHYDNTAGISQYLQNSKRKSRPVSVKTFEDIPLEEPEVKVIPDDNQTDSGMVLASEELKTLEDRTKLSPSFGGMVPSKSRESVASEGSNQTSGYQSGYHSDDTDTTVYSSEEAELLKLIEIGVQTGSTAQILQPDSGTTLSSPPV

Compound: COc1cc(NC(=O)N(C)c2cc(Nc3cccc(N4CCN(C)CC4)c3)ncn2)c(Cl)c(OC)c1 [Example 51, 3-(2-Chloro-3,5-dimethoxy-phenyl)-1-methyl-1-{6-[3-(4-methyl-piperazin-1-yl)-phenylamino]-pyrimidin-4-yl}-urea]
inhibition at 10 µM (KDR): 67 to 100%
inhibition at 10 µM (Tek): 12 to 100%
inhibition at 10 µM (FGFR3 (K650E)): 27 to 100%

Compound: COc1ccc(CN(C(=O)Nc2c(Cl)ccc(OC)c2Cl)c2cc(Nc3ccc(N4CCN(C)CC4)cc3)ncn2)cn1 [Example 63, 3-(2,6-Dichloro-3-methoxy-phenyl)-1-(6-methoxy-pyridin-3-ylmethyl)-1-{6-[4-(4-methyl-piperazin-1-yl)-phenylamino]-pyrimidin-4-yl}-urea]
inhibition at 10 µM (KDR): 67 to 100%
inhibition at 10 µM (Tek): 12 to 100%
inhibition at 10 µM (FGFR3 (K650E)): 27 to 100%

Compound: COc1ccc(NC(=O)Nc2cc(Nc3ccc(N4CCN(C)CC4)cc3)ncn2)c(OC)c1 [Example 16, 1-(2,4-Dimethoxy-phenyl)-3-{6-[4-(4-methyl-piperazin-1-yl)-phenyl-amino]-pyrimidin-4-yl}-urea]
inhibition at 10 µM (KDR): 67 to 100%
inhibition at 10 µM (Tek): 12 to 100%
inhibition at 10 µM (FGFR3 (K650E)): 27 to 100%

Compound: COc1cc(NC(=O)N(C)c2cc(Nc3cccc(N4CCN(C)CC4)c3)ncn2)cc(OC)c1 [Example 48, 3-(3,5-Dimethoxy-phenyl)-1-methyl-1-{6-[3-(4-methyl-piperazin-1-yl)-phenylamino]-pyrimidin-4-yl}-urea]
inhibition at 10 µM (KDR): 67 to 100%
inhibition at 10 µM (Tek): 12 to 100%
inhibition at 10 µM (FGFR3 (K650E)): 27 to 100%

Compound: COc1cc(NC(=O)Nc2cc(Nc3ccc(N4CCN(C)CC4)cc3)ncn2)ccc1F [Example 32, 1-(4-Fluoro-3-methoxy-phenyl)-3-{6-[4-(4-methyl-piperazin-1-yl)-phenyl-amino]-pyrimidin-4-yl}-urea]
inhibition at 10 µM (KDR): 67 to 100%
inhibition at 10 µM (Tek): 12 to 100%
inhibition at 10 µM (FGFR3 (K650E)): 27 to 100%

Compound: COc1cc(NC(=O)Nc2cc(Nc3cccc(N4CCN(C)CC4)c3)ncn2)cc(OC)c1OC [Example 15, 1-{6-[3-(4-Methyl-piperazin-1-yl)-phenylamino]-pyrimidin-4-yl}-3-(3,4,5-trimethoxy-phenyl)-urea]
inhibition at 10 µM (KDR): 67 to 100%
inhibition at 10 µM (Tek): 12 to 100%
inhibition at 10 µM (FGFR3 (K650E)): 27 to 100%

Compound: CN1CCN(c2ccc(Nc3cc(NC(=O)Nc4cc(Cl)cc(Cl)c4)ncn3)cc2)CC1 [Example 10, 1-(3,5-Dichloro-phenyl)-3-{6-[4-(4-methyl-piperazin-1-yl)-phenylamino]-pyrimidin-4-yl}-urea]
inhibition at 10 µM (KDR): 67 to 100%
inhibition at 10 µM (Tek): 12 to 100%
inhibition at 10 µM (FGFR3 (K650E)): 27 to 100%

Compound: CCN(CC)CCOc1ccc(Nc2cc(NC(=O)Nc3cc(OC)cc(OC)c3Cl)ncn2)cc1 [Example 42, 1-(2-Chloro-3,5-dimethoxy-phenyl)-3-{6-[4-(2-diethylamino-ethoxy)-phenylamino]-pyrimidin-4-yl}-urea]
inhibition at 10 µM (KDR): 67 to 100%
inhibition at 10 µM (Tek): 12 to 100%
inhibition at 10 µM (FGFR3 (K650E)): 27 to 100%

Compound: COc1cc(NC(=O)N(CCc2ccccn2)c2cc(Nc3ccccc3)ncn2)c(Cl)c(OC)c1 [Example 58, 3-(2-Chloro-3,5-dimethoxy-phenyl)-1-(6-phenylamino-pyrimidin-4-yl)-1-(2-pyridin-2-yl-ethyl)-urea]
inhibition at 10 µM (KDR): 67 to 100%
inhibition at 10 µM (Tek): 12 to 100%
inhibition at 10 µM (FGFR3 (K650E)): 27 to 100%

More lines, now with the values ahead:

inhibition at 10 µM (KDR): 67 to 100%
inhibition at 10 µM (Tek): 12 to 100%
inhibition at 10 µM (FGFR3 (K650E)): 27 to 100%
Compound: CCN(C(=O)Nc1c(Cl)c(OC)cc(OC)c1Cl)c1cc(Nc2ccc(OCCN3CCCC3)cc2)ncn1 [Example 156, 3-(2,6-Dichloro-3,5-dimethoxy-phenyl)-1-ethyl-1-{6-[4-(2-pyrrolidin-1-yl-ethoxy)-phenylamino]-pyrimidin-4-yl}-urea]

inhibition at 10 µM (KDR): 67 to 100%
inhibition at 10 µM (Tek): 12 to 100%
inhibition at 10 µM (FGFR3 (K650E)): 27 to 100%
Compound: O=C(Nc1cc(Nc2ccc(OCCN3CCOCC3)cc2)ncn1)Nc1ccccc1Br [Example 97, 1-(2-Bromo-phenyl)-3-{6-[4-(2-morpholin-4-yl-ethoxy)-phenylamino]-pyrimidin-4-yl}-urea]

inhibition at 10 µM (KDR): 67 to 100%
inhibition at 10 µM (Tek): 12 to 100%
inhibition at 10 µM (FGFR3 (K650E)): 27 to 100%
Compound: O=C(Nc1cc(Nc2ccc(OCCN3CCOCC3)cc2)ncn1)Nc1ccccc1Cl [Example 142, 1-(2-Chloro-phenyl)-3-{6-[4-(2-morpholin-4-yl-ethoxy)-phenylamino]-pyrimidin-4-yl}-urea]

inhibition at 10 µM (KDR): 67 to 100%
inhibition at 10 µM (Tek): 12 to 100%
inhibition at 10 µM (FGFR3 (K650E)): 27 to 100%
Compound: CCN(C(=O)Nc1c(Cl)c(OC)cc(OC)c1Cl)c1cc(Nc2ccc(N3CCN(C)CC3)cc2)ncn1 [Example 143, 3-(2,6-Dichloro-3,5-dimethoxy-phenyl)-1-ethyl-1-{6-[4-(4-methyl-piperazin-1-yl)-phenylamino]-pyrimidin-4-yl}-urea]

inhibition at 10 µM (KDR): 67 to 100%
inhibition at 10 µM (Tek): 12 to 100%
inhibition at 10 µM (FGFR3 (K650E)): 27 to 100%
Compound: CCN(CC)CCCOc1ccc(Nc2cc(NC(=O)Nc3c(Cl)cccc3Cl)ncn2)cc1 [Example 103, 1-(2,6-Dichloro-phenyl)-3-{6-[4-(3-diethylamino-propoxy)-phenylamino]-pyrimidin-4-yl}-urea]

inhibition at 10 µM (KDR): 67 to 100%
inhibition at 10 µM (Tek): 12 to 100%
inhibition at 10 µM (FGFR3 (K650E)): 27 to 100%
Compound: COc1cc(OC)c(Cl)c(NC(=O)N(C)c2cc(Nc3ccc(C(F)(F)F)nc3)ncn2)c1Cl [Example 154, 3-(2,6-Dichloro-3,5-dimethoxy-phenyl)-1-methyl-1-[6-(6-trifluoromethyl-pyridin-3-ylamino)-pyrimidin-4-yl]-urea]

inhibition at 10 µM (KDR): 67 to 100%
inhibition at 10 µM (Tek): 12 to 100%
inhibition at 10 µM (FGFR3 (K650E)): 27 to 100%
Compound: CN(C(=O)Nc1cccc(Cl)c1)c1cc(Nc2ccc(F)cc2)ncn1 [Example 122, 3-(3-Chloro-Phenyl)-1-[6-(4-fluoro-phenylamino)-pyrimidin-4-yl]-1-methyl-urea]

inhibition at 10 µM (KDR): 67 to 100%
inhibition at 10 µM (Tek): 12 to 100%
inhibition at 10 µM (FGFR3 (K650E)): 27 to 100%
Compound: O=C(Nc1cc(Nc2ccc(OCCCN3CCOCC3)cc2)ncn1)Nc1ccccc1Cl [Example 125, 1-(2-Chloro-Phenyl)-3-{6-[4-(3-morpholin-4-yl-propoxy)-phenylamino]-pyrimidin-4-yl}-urea bis-hydrochloride Salt]
